What was measured:
[1] = format: physicochemical
Source text: a) Impurity 1 is formed in acidic and basic conditions. Impurity 1 is chemically 5-Azacytosine or 4-amino-1, 3, 5-triazin-2(1H)-one and represented by following structure.
b) Impurity 2 is an oxidation impurity formed by peroxide stress and is chemically (4-amino-1-(tetrahydro-4-hydroxy-5-(Hydroxymethyl)furan-2-yl)-1,3,5-triazin-2(1H)-one or alpha isomer and represented by following structure
c) Impurity 3 is an oxidation impurity formed by peroxide stress. Impurity 3 is chemically represented as (2-Deoxy-ribufuranosyl-3-guanylurea) or deformyl impurity and represented by following structure
d) NFDU impurity is a transition impurity and increases on oxidation by peroxide stress chemically represented as N-(formylamidino) N′-β-D-2′-deoxyribofuranosylurea and structurally represented as […]

[2] = reconstituted and diluted Dacogen solution; cited from earlier work

In the case of `Nc1ncn([C@H]2C[C@H](O)[C@@H](CO)O2)c(=O)n1` [decitabine, 4-amino-1-(2-deoxy-β-D-erythro-pentofuranosyl)-1,3,5-triazin-2(1H)-one], the “Impurities obtained on forced degradation” value [1] is listed as “four known impurities namely Impurity-1, Impurity-2, Impurity-3 and NFDU are obtained” and the “Stability in aqueous media” value [2] is listed as “highly unstable”.
